This is an account of results in patent US9102614B2, “Naphth-2-ylacetic acid derivatives to treat AIDS” (Gilead Sciences, Inc., priority 2010, dated 2015).

The test system of the first test is HIV-IIIb. Nature of the test: Test A: Antiviral Assays in MT4 Cells. It is filed as cell-based. The following applies: Human immunodeficiency virus 1, IIIB, MT4, 120 h. The gist of the method:
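MT-4 cells pre-infected with HIV-IIIb (0.004 m.o.i.) at 37 °C, then plated with 3-fold serially diluted compound (10 concentrations, quadruplicate, RPMI 1640/10% FBS). After 5 days at 37 °C, cell viability read by CellTiter-Glo chemiluminescence; mock-infected cells run in parallel.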
Take `Cc1cc2cc(F)c(F)cc2c(-c2ccc3c4c(ccnc24)CCO3)c1[C@H](OC(C)(C)C)C(=O)O` [Compound 108, (S)-2-tert-Butoxy-2-((R)-1-(2,3-dihydropyrano[4,3,2-de]quinolin-7-yl)-6,7-difluoro-3-methylnaphthalen-2-yl)acetic acid]: the EC50 (usually the concentration that produces a half-maximal response) amounted to 28 nM. Compound `Cc1cc2c(C#CCN(C)C)cccc2c(-c2ccc(Cl)cc2)c1C(OC(C)(C)C)C(=O)O` (stereo not drawn) [Compound 39, 2-tert-Butoxy-2-(1-(4-chlorophenyl)-5-(3-(dimethylamino)prop-1-ynyl)-3-methylnaphthalen-2-yl)acetic acid] displayed a 50% effective concentration (EC50) of 700 nM.

Still in this test, the particulars now being: Human immunodeficiency virus 1, IIIB, MT4, 120 h, MT-4 cells infected with HIV-IIIb (0.004 m.o.i.), 5 days of incubation, CellTiter-Glo chemiluminescence readout; read-out: EC50.
`CN(C)Cc1cc2ccccc2c(-c2ccc(Cl)cc2)c1[C@H](OC(C)(C)C)C(=O)O` [Compound 24, (S)-2-tert-Butoxy-2-(1-(4-chlorophenyl)-3-(dimethylaminomethyl)naphthalen-2-yl)acetic acid]: the 50% effective concentration (EC50) was found to be 29000 nM. For the compound `Cc1cc2ccc(Cl)cc2c(-c2ccc(Cl)cc2)c1C(OC(C)(C)C)C(=O)O` (stereo not drawn) [Compound 149, 2-tert-Butoxy-2-(7-chloro-1-(4-chlorophenyl)-3-methylnaphthalen-2-yl)acetic acid], the EC50 was 200 nM. On to `Cc1cc2ccc(-c3ccc(Cl)cc3)cc2c(-c2ccc(Cl)cc2)c1C(OC(C)(C)C)C(=O)O` (stereo not drawn) [Compound 70, 2-(1,7-Bis(4-chlorophenyl)-3-methylnaphthalen-2-yl)-2-tert-butoxyacetic acid], for which the EC50 worked out at 8800 nM. For `Cc1cc2ccc(C#CC(C)(C)N(C)C)cc2c(-c2ccc(Cl)cc2)c1C(OC(C)(C)C)C(=O)O` (stereo not drawn) [Compound 95, 2-tert-Butoxy-2-(1-(4-chlorophenyl)-7-(3-(dimethylamino)-3-methylbut-1-ynyl)-3-methylnaphthalen-2-yl)acetic acid], the 50% effective concentration (EC50) stood at 380 nM.

For `Cc1cc2ccc(CCC(C)(C)O)cc2c(-c2ccc(Cl)cc2)c1C(OC(C)(C)C)C(=O)O` (stereo not drawn) [Compound 89, 2-tert-Butoxy-2-(1-(4-chlorophenyl)-7-(3-hydroxy-3-methylbutyl)-3-methylnaphthalen-2-yl)acetic acid], the 50% effective concentration (EC50) turned out to be 280 nM. Consider `Cc1cc2ccc(C#CC3(N)CCCCC3)cc2c(-c2ccc(Cl)cc2)c1[C@H](OC(C)(C)C)C(=O)O` [Compound 100, (S)-2-(7-((1-Aminocyclohexyl)ethynyl)-1-(4-chlorophenyl)-3-methylnaphthalen-2-yl)-2-tert-butoxyacetic acid], for which the 50% effective concentration (EC50) worked out at 23 nM. In the case of `Cc1c(C(OC(C)(C)C)C(=O)O)c(-c2ccc(Cl)cc2)c2ccccc2c1-c1cnc(N)nc1` (stereo not drawn) [Compound 145, 2-(4-(2-Aminopyrimidin-5-yl)-1-(4-chlorophenyl)-3-methylnaphthalen-2-yl)-2-tert-butoxyacetic acid], the EC50 was found to be 50 nM. In the case of `Cc1cc2ccccc2c(C2=CCC(C)CC2)c1[C@H](OC(C)(C)C)C(=O)O` (stereo partly drawn) [Compound 13, (2S)-2-tert-Butoxy-2-(3-methyl-1-(4-methylcyclohex-1-enyl)naphthalen-2-yl)acetic acid], the concentration for a half-maximal effect (EC50) is 10 nM. On to `Cc1cc2ccc(F)cc2c(-c2ccc3c4c(ccnc24)CCO3)c1[C@H](OC(C)(C)C)C(=O)O` (atropisomer, axis not shown) [Compound 179], for which the EC50 came out at 18700 nM. As to `CC(C)(C)O[C@H](C(=O)O)c1c(CN2CCOCC2)cc2ccccc2c1-c1ccc(Cl)cc1` [Compound 27, (S)-2-tert-Butoxy-2-(1-(4-chlorophenyl)-3-(morpholinomethyl)naphthalen-2-yl)acetic acid], the half-maximal effective concentration (EC50) came out at 3500 nM. With `Cc1cc2cc(-c3cn[nH]c3)ccc2c(-c2ccc(Cl)cc2)c1[C@H](OC(C)(C)C)C(=O)O` [Compound 57, (S)-2-tert-Butoxy-2-(1-(4-chlorophenyl)-3-methyl-6-(1H-pyrazol-4-yl)naphthalen-2-yl)acetic acid], the EC50 amounted to 82 nM. Regarding `Cc1cc2cc(-c3cncn3C)ccc2c(-c2ccc(Cl)cc2)c1[C@H](OC(C)(C)C)C(=O)O` [Compound 65, (S)-2-tert-butoxy-2-(1-(4-chlorophenyl)-3-methyl-6-(1-methyl-1H-imidazol-5-yl)naphthalen-2-yl)acetic acid], the EC50 turned out to be 190 nM. On to `Cc1cc2ccc(CCC3CC3)cc2c(-c2ccc(Cl)cc2)c1C(OC(C)(C)C)C(=O)O` (stereo not drawn) [Compound 92, 2-tert-Butoxy-2-(1-(4-chlorophenyl)-7-(2-cyclopropylethyl)-3-methylnaphthalen-2-yl)acetic acid], for which the EC50 was 7100 nM. With `CCC(O)(C#Cc1ccc2cc(C)c(C(OC(C)(C)C)C(=O)O)c(-c3ccc(Cl)cc3)c2c1)CC` (stereo not drawn) [Compound 82, 2-tert-Butoxy-2-(1-(4-chlorophenyl)-7-(3-ethyl-3-hydroxypent-1-ynyl)-3-methylnaphthalen-2-yl)acetic acid], the EC50 was found to be 58 nM. Still for that read-out and setting: then `Cc1c(C(OC(C)(C)C)C(=O)O)c(-c2ccc(Cl)cc2)c2ccccc2c1-c1cncnc1` (stereo not drawn) [Compound 139, 2-tert-Butoxy-2-(1-(4-chlorophenyl)-3-methyl-4-(pyrimidin-5-yl)naphthalen-2-yl)acetic acid], with 10 nM. Consider `CC(C)(C)O[C@H](C(=O)O)c1c(COc2cncnc2)cc2ccccc2c1-c1ccc(Cl)cc1` [Compound 26, (S)-2-tert-Butoxy-2-(1-(4-chlorophenyl)-3-((pyrimidin-5-yloxy)methyl)naphthalen-2-yl)acetic acid], for which the EC50 amounted to 840 nM. For `Cc1c(C(OC(C)(C)C)C(=O)O)c(-c2ccc(Cl)cc2)c2ccccc2c1Br` (stereo not drawn) [Compound 126, 2-(4-Bromo-1-(4-chlorophenyl)-3-methylnaphthalen-2-yl)-2-tert-butoxyacetic acid], the EC50 was 833 nM. On to `Cc1cc2cc(Cl)ccc2c(-c2ccc3c4c(ccnc24)CCO3)c1[C@@H](OC(C)(C)C)C(=O)O` (atropisomer, axis not shown) [Compound 177], for which the EC50 came to 37000 nM. With `Cc1cc2ccc(C#CC3(N)CCCCC3)cc2c(-c2ccc(Cl)cc2)c1C(OC(C)(C)C)C(=O)O` (stereo not drawn) [Compound 84, 2-(7-((1-Aminocyclohexyl)ethynyl)-1-(4-chlorophenyl)-3-methylnaphthalen-2-yl)-2-tert-butoxyacetic acid], the EC50 is 14 nM.

Regarding `Cc1c(C(OC(C)(C)C)C(=O)O)c(-c2ccc(Cl)cc2)c2ccccc2c1-c1cnc(=O)[nH]c1` (stereo not drawn) [Compound 146, 2-tert-Butoxy-2-(1-(4-chlorophenyl)-3-methyl-4-(2-oxo-1,2-dihydropyrimidin-5-yl)naphthalen-2-yl)acetic acid], the concentration giving a half-maximal response (EC50) worked out at 10000 nM. `Cc1cc2cc(-c3cn(C)cn3)ccc2c(-c2ccc(Cl)cc2)c1[C@H](OC(C)(C)C)C(=O)O` [Compound 64, (S)-2-tert-Butoxy-2-(1-(4-chlorophenyl)-3-methyl-6-(1-methyl-1H-imidazol-4-yl)naphthalen-2-yl)acetic acid]: the concentration giving a half-maximal response (EC50) turned out to be 52 nM. Same read-out and setting: the figure for `CCc1cc2cc(C)c([C@H](OC(C)(C)C)C(=O)O)c(-c3ccc4c5c(ccnc35)CCO4)c2cc1F` (atropisomer, axis not shown) [Compound 165] is 53000 nM. For `Cc1c(C(OC(C)(C)C)C(=O)O)c(-c2ccc(Cl)cc2)c2ccccc2c1CN1CCOCC1` (stereo not drawn) [Compound 134, 2-tert-Butoxy-2-(1-(4-chlorophenyl)-3-methyl-4-(morpholinomethyl)naphthalen-2-yl)acetic acid], the EC50 is 150 nM. Consider `CCc1c(C)c(C(OC(C)(C)C)C(=O)O)c(-c2ccc(Cl)cc2)c2ccccc12` (stereo not drawn) [Compound 129, 2-tert-Butoxy-2-(1-(4-chlorophenyl)-4-ethyl-3-methylnaphthalen-2-yl)acetic acid], for which the EC50 is 170 nM. Consider `Cc1cc2c(Cl)cccc2c(-c2ccc(Cl)cc2)c1C(OC(C)(C)C)C(=O)O` (stereo not drawn) [Compound 45, 2-tert-Butoxy-2-(5-chloro-1-(4-chlorophenyl)-3-methylnaphthalen-2-yl)acetic acid], for which the EC50 is 1800 nM. Same read-out and setting: then `Cc1cc2c(C)cccc2c(-c2ccc(Cl)cc2)c1C(OC(C)(C)C)C(=O)O` (stereo not drawn) [Compound 40, 2-tert-Butoxy-2-(1-(4-chlorophenyl)-3,5-dimethylnaphthalen-2-yl)acetic acid], with 210 nM; and `Cc1cc2ccc(Br)cc2c(-c2ccc(Cl)cc2)c1C(OC(C)(C)C)C(=O)O` (stereo not drawn) [Compound 71, 2-(7-Bromo-1-(4-chlorophenyl)-3-methylnaphthalen-2-yl)-2-tert-butoxyacetic acid], with 35000 nM.

Staying with this test, now noted: MT-4 cells infected with HIV-IIIb (0.004 m.o.i.), 5 days of incubation, CellTiter-Glo chemiluminescence readout; read-out: EC50.
Turning to `Cc1ccc2c(-c3ccc4c5c(ccnc35)CCO4)c([C@H](OC(C)(C)C)C(=O)O)c(C)cc2c1` [Compound 68B, (S)-2-tert-Butoxy-2-((R)-1-(2,3-dihydropyrano[4,3,2-de]quinolin-7-yl)-3,6-dimethylnaphthalen-2-yl)acetic acid], the EC50 came out at 5 nM. As to `Cc1cc2cc(C(C)C)c(F)cc2c(-c2ccc3c4c(ccnc24)CCO3)c1[C@H](OC(C)(C)C)C(=O)O` [Compound 102, (S)-2-tert-Butoxy-2-((R)-1-(2,3-dihydropyrano[4,3,2-de]quinolin-7-yl)-7-fluoro-6-isopropyl-3-methylnaphthalen-2-yl)acetic acid], the EC50 was 37 nM. Consider `Cc1cc2cc(F)ccc2c(-c2ccc3c4c(ccnc24)CCO3)c1C(OC(C)(C)C)C(=O)O` [Compound 43, 2-tert-butoxy-2-((R)-1-(2,3-dihydropyrano[4,3,2-de]quinolin-7-yl)-6-fluoro-3-methylnaphthalen-2-yl)acetic acid], for which the EC50 is 22 nM.

As to `Cc1cc2cc(C)c([C@H](OC(C)(C)C)C(=O)O)c(-c3ccc4c5c(ccnc35)CCO4)c2cc1F` [Compound 112, (S)-2-tert-Butoxy-2-((R)-1-(2,3-dihydropyrano[4,3,2-de]quinolin-7-yl)-7-fluoro-3,6-dimethylnaphthalen-2-yl)acetic acid], the concentration for a half-maximal effect (EC50) worked out at 9 nM.
